Legend:
[1] = cited from earlier work
[2] = tested on: Schaffer collateral (SC)-CA1 synapses; assay: LTP recordings on horizontal hippocampal slices (fEPSP amplitude after high-frequency stimulation); type: in vivo, mice; details: for LTP at SC-CA1 synapses: daily oral Verubecestat 3 mg/kg or Lanabecestat 0.5 mg/kg for 2-4 months; for potentiation at 30 minutes post-stimulation: slices from 4-6-month-old WT mice, Lanabecestat 0.5 mg/kg or Verubecestat 3 mg/kg, control slices 245.9±0.9864%
Experimental: (§1) C57BL/6 mice of either sex (4-6 months of age; n=6 per group) received vehicle or BACE1 inhibitors, Lanabecestat (AZD3293) solution at 0.25 mg/kg or 0.5 mg/kg) via oral gavage (Eketjall et al., 2016b). For Verubescstat, 3mg/kg dose was used and delivered orally via gavage (Kennedy et al., 2016). Treatment usually last 2-4 months. The mGluR1 positive allosteric modulator Ro0711401 at 10 mg/kg was given as intraperitoneal injections (IP) 1 hour before decapitation for LTP experiments (Notartomaso et al., 2013). For behavioral assays, Ro0711401 was deliver via IP injection at 12-hour intervals for 6-8 weeks. The mGluR1/5 positive allosteric modulator CHPG was mixed in aCSF and used during recording LTP. The drug was applied in a bath during baseline recording for at least for 30 minutes before HFS stimulation was applied and LTP was recorded (Le Duigou and Kullmann, 2011).
Acute brain slices were prepared as previously described (Hu et al., 2018). Briefly, the mice were decapitated and the brains were immersed in low-calcium artificial cerebrospinal fluid (aCSF) containing (in mM): 125 NaCl, 2.5 KCl, 10 glucose, 25 NaHCO3, 1.25 NaH2PO4, 0.4 L-ascorbic acid, 3 myo-inositol, 2 Na-pyruvate, 3 MgCl2 and 0.1 CaCl2 continuously bubbled with 95% O2 and 5% CO2 (pH≈7.3). Animals were decapitated with a guillotine and the brain was quickly removed to an ice-cold aCSF chamber with constant bubbling of 95% O2 and 5% CO2. Acute horizontal brain slices containing the hippocampus were obtained using a Campden 7000 smz-2 vibratome from 4-7-month-old mice at 350 μm thick. Slices were immediately transferred to an incubation beaker containing normal aCSF (same as the low-calcium aCSF except that 1 mM MgCl2 and 1, 1.2, or 2 mM CaCl2 were used) at 30° C., continuously bubbled with 95% O2 and 5% CO2. Slices were allowed to recover for 1 hour and then were transferred to an MED-64 recording chamber with the same aCSF solution at ≈30° C., maintained by MED ThermoConnector (Automate Scientific) with continuous aCSF perfusion at 2 ml/min.
LTP recordings on hippocampal slices were performed according to previously-described procedures (Shimono et al., 2002; Baba et al., 2003; Itoh et al., 2005). Upon obtaining horizontal hippocampal slices from the brains of mice, the prepared slices were then placed onto the center of an MED probe (MED-P515A; AutoMate™ Scientific) with continuous perfusion of aCSF and bubbling of 95% O2 and 5% CO2. The device has an array arranged in an 8×8 pattern of 64 planar microelectrodes across a hippocampal slice. Each electrode is 20×20 μm with an interelectrode distance of 150 μm. A MED-A64HE1S head amplifier and a MED-A64MD1 main amplifier, run by Mobius software, were used for data acquisition and analysis. SCs to CA1 synapses were typically analyzed for LTP assays. fEPSPs caused by stimulation were recorded at a 20-kHz sampling rate within the CA1 subregion of the hippocampus. Control fEPSPs were recorded for at least 10 min before the conditioning stimulation, using a response ˜50% of the maximum. After a stable baseline was established, LTP was induced with three trains of 100 Hz for 1 s with an intertrain interval F of 20 s. Field potential amplitudes were then measured. Data are expressed as mean±SEM. Synaptic strength was evaluated by measuring changes in the fEPSP amplitude relative to baseline. Statistics were calculated by Student's t tests.

[3] = tested on: synaptic proteins PSD95, mGluR2, Synaptophysin in synaptosome fraction; assay: Western analysis of synaptic proteins in synaptosomes from treated animals; type: in vivo, mice; details: chronic treatment, Lanabecestat 0.5 mg/kg or Verubecestat 3 mg/kg
Experimental: as §1
Synaptosome isolation was performed using Thermo Scientific Syn-PER Synaptic Protein Extraction Reagent (cat #87793) from whole brain samples. Briefly, mice were sacrificed by live decapitation, and rapidly dissected hippocampi were homogenized in Syn-Per reagent, ˜1 ml/100 mg tissue. Samples were then centrifuged at 1200×g for 10 min. The resulting supernatant was then centrifuged at 15,000×g for 20 min. Pellets (synaptosomes) were resuspended in buffer B ([…] in 6 mm Tris, pH 8.0) with 1% SDS, briefly sonicated, and frozen in −80° C. Total protein extraction was performed according to previously-described procedures (Hu et al., 2007). Brain samples were homogenized in radioimmunoprecipitation assay (RIPA) buffer (50 mM Tris-HCl, pH 7.4, 1% NP-40, 0.25% sodium deoxycholate, 150 mM NaCl, 1 mM EDTA, 1 mM NaF, 1 mM Na3VO4, and a protease inhibitor cocktail [Roche]) and centrifuged at 13,200 rpm for 90 min. Equal amounts of protein were resolved on a NuPAGE Bis-Tris gel (Invitrogen) and transferred onto nitrocellulose membranes (Invitrogen). Subsequently, blots were incubated with primary antibodies 1:1,000 mGluR1 [AB_12551; Cell Signaling]; 1:1,000 PSD-95 [AB_36233; Cell Signaling]; 1:5,000 GluR1 [AB_05-855; Upstate]; 1:1,000 GluR2/3 [AB_07-598; Upstate]; 1:1,000 GluR4 [AB_06-308; Upstate]; 1:1,000 Homer [AB_8231; Cell Signaling]; 1:500 TMEM25 [AB_24361-1-AP; ProteinTech Group]; 1:1,000 Bassoon [AB_141021; Synaptic Systems]; 1:10,000 Actin [AB_A5441; Sigma], overnight at 4° C. After extensive washing, blots were reacted with HRP-conjugated secondary antibodies and visualized using enhanced chemiluminescence (Thermo Scientific).

WT (BACE1+/+) mice = assay: Fear conditioning studies; type: in vivo; details: Lanabecestat 0.5 mg/kg or Verubecestat 3 mg/kg, N=10
[4] = tested on: mice (WT BACE1+/+ or BACE1-null); assay: Open field test; type: in vivo
Experimental: (§2) Treatment usually last 2-4 months. […] For behavioral assays, Ro0711401 was deliver via IP injection at 12-hour intervals for 6-8 weeks. The mGluR1/5 positive allosteric modulator CHPG was mixed in aCSF and used during recording LTP.
Each subject was released in the middle of the arena and observed for 10 minutes. Performance in the open field was recorded by a computer-based video tracking system (Any maze™ software, San Diego instruments, USA). Activity measures included distance traveled, percentage of time spent in corners vs. the center of the arena, and speed of movement during active exploration. The number of entries to the central zone of the open field was also recorded. Statistics were calculated by Student's t tests.

[5] = tested on: mice (WT BACE1+/+ or BACE1-null); assay: Y maze spontaneous alternation task; type: in vivo
Text: as §2
The symmetrical Y maze made of acrylic consists of three arms separated by 120 degrees. Each arm is 40 cm long, 17 cm high, 4 cm wide at the bottom and 13 cm wide at the top. Each mouse was placed in the center of the Y maze and was allowed to explore freely through the maze during a 5 min session. The sequence and total number of arms entered was recorded. Arm entry was considered to be completed when the hind paws of the mouse had been completely placed in the arm. Percentage of alternations is the number of triads containing entries into all three arms divided by the maximum possible alternations (the total number of arms entered minus 2)×100. Statistics were calculated by Student's t tests.

[6] = tested on: mice (WT BACE1+/+ or BACE1-null); assay: Morris water maze; type: in vivo
Experimental: as §2
The Morris water maze test was used to assess cognitive impairment. The apparatus consisted of a white circular tank (120 cm in diameter and 40 cm deep) filled with warm water (22° C.). The water was made to appear opaque using white nontoxic paint. A transparent platform (8 cm in diameter) was located in the middle of the southwest quadrant. Mice were subjected to four consecutive trials each day over a 3-day training period (with a flag attached to the platform) and then again for 5 days (no flag attached to platform) and the platform was submerged 0.5 cm below the water surface. Each mouse was released from four different positions around the perimeter of the tank (north, northwest, east, and southeast). In each trial, every mouse was allowed to swim until it found the platform (for a maximum of 60 s) and was subsequently left on the platform for 20 s between trials. If the platform was not found in 60 s, the mouse was guided to the platform and remained there for 20 s. The escape latency to find the hidden platform was automatically recorded using a video tracking system (Any-maze, San Diego instruments). At the end of the training on the eighth day, a probe test was conducted for […] on the 9th day. The platform was removed; each was released from the northeast quadrant and was allowed to swim for 60 s. Memory retention was measured by quantifying the time spent in the target quadrant, the number of entries made into the southwest quadrant, and the number of crossings over the previous platform location. Statistics were calculated by Student's t tests. Values are expressed as mean±SEM.

[7] = 12 months old BACE1+/+ mice, ~50 days
[8] = WT mice, Lanabecestat 0.5 mg/kg ~2 months (FIG. 6)
[9] = WT mice, Lanabecestat 0.5 mg/kg or Verubecestat 3 mg/kg for ~2 months (FIG. 6)
[10] = BACE1-null mice, 10 mg/kg i.p. every 12 hours, vs mock treatment

In the case of `NC(C(=O)O)c1cc(O)ccc1Cl` (racemic) [CHPG, (RS)-2-Chloro-5-hydroxyphenylglycine], the brain penetrability [1] is given as “non-brain penetrable”, the “LTP response vs mock treated slices” value ([2]; BACE1-null slices pre-treated with 125 nM for 30 min) is given as “significantly improved” and the “LTP response vs mock treatment” value ([2]; CHPG bath on slices from WT mice treated with Lanabecestat 0.5 mg/kg for 60 days) is given as “slightly improved”. For the same molecule, the “LTP response vs mock treatment” value ([2]; CHPG bath on slices from WT mice treated with Verubecestat 3 mg/kg for 60 days) was “markedly improved”.
For `CC#Cc1cncc(-c2ccc3c(c2)[C@@]2(N=C(C)C(N)=N2)[C@]2(CC[C@@H](OC)CC2)C3)c1` [Lanabecestat], the brain penetrability [1] is given as “brain-penetrable”, the “PSD95 level in synaptosome fraction” value [3] is given as “significant decrease” and the “Synaptophysin level in synaptosome fraction” value [3] is given as “significant decrease”. For the same molecule, the “mGluR2 level in synaptosome fraction” value [3] was “significant decrease”, the “freezing time, contextual phase” value (WT (BACE1+/+) mice) was “significant reduction” and the “freezing time, cue phase” value (WT (BACE1+/+) mice) was “significant reduction”. The “LTP reduction at lower dose” value ([2]; WT mice, Lanabecestat 0.25 mg/kg, compared with 0.5 mg/kg) was “significantly weaker LTP reduction”, the “LTP at SC-CA1 synapses” value ([2]; WT mice) was “strongly suppressed” and the “potentiation at 30 minutes post-stimulation” value [2] was 105.6±0.6137%. For the same molecule, the “distance traveled on the open field, BACE1 inhibitor alone” value [4, 7] was “traveled more distances”, the “speed on the open field, BACE1 inhibitor alone” value [4, 7] was “faster” and the “stay in the corner of the open field area vs mock-treated controls” value ([4]; BACE1 inhibitor alone, ~50 days) was “stayed more in the corner”. For the same molecule, the speed [4, 8] was “clear increase”, the total distance covered [4, 8] was “clear increase” and the “exploratory behaviors, time in corners vs center” value ([4]; WT mice, ~2 months treatment (FIG. 6)) was “less exploratory behaviors”. The “total entry, BACE1 inhibitor alone” value [5, 7] was “more significant”, the “% of spontaneous alteration, BACE1 inhibitor alone vs mock treatment” value ([5]; 12 months old BACE1+/+ mice, ~50 days, Verubecestat 3 mg/kg or Lanabecestat 0.5 mg/kg oral, not statistically significant) was “reduction” and the “number of arm entries” value [5, 9] was “clearly reduced”. For the same molecule, the spontaneous alternations [5, 9] was “clearly reduced”.
In the case of `O=C(Nc1nc(C(F)(F)F)co1)C1c2ccccc2Oc2ccccc21` [Ro0711401, N-[4-(trifluoromethyl)-1,3-oxazol-2-yl]-9H-xanthene-9-carboxamide], the “number of entries made to the platform quadrant” value ([6]; 9th day probe, BACE1-null treated, WT 6.364±0.5094, BACE1-null 3.700±0.5385) is reported as 4.900±0.6403, the “time to reach the platform, habituation day 3” value ([6]; BACE1-null+Ro0711401 mice, BACE1-null 31.56±3.432 s, WT 8.098±1.318 s) is reported as 18.20 ± 3.203 s and the “time to reach the platform, habituation day 1” value ([6]; BACE1-null+Ro0711401 mice, BACE1-null 41.32±3.131 s, WT 21.99±2.986 s) is reported as 24.88 ± 2.935 s. For the same molecule, the “average distance covered to reach the platform over the trials” value ([6]; habituation and training phases, BACE1-null 3.872±0.7645, WT 1.205±0.2805) was 1.909±0.3878 meters, the “average duration to reach the platform of untreated BACE1-null mice relative to BACE1-null mice treated with Ro0711401” value ([6]; training phase, 5 days, submerged platform, all trial days) was “significantly higher” and the brain penetrability [1] was “brain-penetrable”. For the same molecule, the “LTP from acutely-sectioned brain slices vs vehicle” value ([2]; 4-6 month old BACE1-null mice, 10 mg/kg i.p. one hour before sacrifice) was “significantly enhanced”, the “LTP after chronic treatment” value ([2]; BACE1-null mice, Ro0711401 10 mg/kg i.p. every 12 hours for about two months, after the behavioral tests) was “significantly elevated to the level close to that of WT mice” and the “time spent in the center of the open field” value ([4]; BACE1-null mice after the treatment) was “more time spent in the center”. The “average speed in the open field arena” value [4, 10] was “lowered”, the “total distance covered in the open field arena” value [4, 10] was “lowered” and the “total numbers of arm entries (entrance performance)” value ([5]; BACE1-null mice, 10 mg/kg i.p. every 12 hours, about 45 days) was “improved entrance performance”. The “changes in percentage of spontaneous alternation among groups” value ([5]; WT, BACE1-null and BACE1-null with Ro0711401) was “not obvious”.
For `CN1C(N)=N[C@](C)(c2cc(NC(=O)c3ccc(F)cn3)ccc2F)CS1(=O)=O` [Verubecestat], the brain penetrability [1] is listed as “brain-penetrable”, the “PSD95 level in synaptosome fraction” value [3] is listed as “significant decrease” and the “Synaptophysin level in synaptosome fraction” value [3] is listed as “significant decrease”. The “mGluR2 level in synaptosome fraction” value [3] was “significant decrease”, the “LTP at SC-CA1 synapses” value ([2]; WT mice) was “significantly reduced” and the “potentiation at 30 minutes post-stimulation” value [2] was 113.1±1.353%.

From patent US12156879B2, “Combining BACE1 inhibitors with mGluR agonists for Alzheimer's disease therapy” (University of Connecticut, priority 2019, dated 2024)
